The values that follow come from patent US20120157401A1, “METHODS FOR TREATING NEUROFIBROMATOSIS” (PTC Therapeutics, Inc., priority 2009, published 2012).

One assay concerns hypoxia-inducible endogenous VEGF expression. Description: Hypoxia-inducible endogenous VEGF expression ELISA in HeLa cells, dose-response EC50 (Table 3). Type of assay: cell-based, human. The conditions noted are these: Homo sapiens, HeLa, read-out: ELISA EC50 μM. A digest of the protocol:
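HeLa cells kept 24-48 h under hypoxia (1% O2, 5% CO2, nitrogen balance) with or without compound, e.g. seven concentrations; secreted VEGF in conditioned medium quantified by ELISA against a standard curve. Parallel Cell Titer Glo viability under identical conditions excludes cytotoxicity.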
(ELISA stands for enzyme-linked immunosorbent assay.)
For `CN1CCN(CCCOc2cccc(C3c4[nH]c5ccc(Cl)cc5c4CCN3C(=O)Oc3ccc(F)cc3)c2)CC1` (stereo not shown) [Compound 1113], the EC50 – broadly, the concentration needed to bring the measured effect to its halfway point – lay within 0.2 to 1 µM.

Consider `O=C(Oc1ccc(F)cc1)N1CCc2c([nH]c3ccc(Cl)cc23)C1c1cccc(OCCCN2CCOCC2)c1` (stereo not shown) [Compound 1115], for which the EC50 was 0.008 to 0.04 µM.

Turning to `O=C(Oc1ccc(F)cc1)N1CCc2c([nH]c3ccc(Cl)cc23)C1c1cccc(OCCCN2CCSCC2)c1` (stereo not shown) [Compound 1117], the half-maximal effective concentration (EC50) fell in the range of 0.008 to 0.04 µM.

Consider `COCCN(CCCOc1cccc(C2c3[nH]c4ccc(Cl)cc4c3CCN2C(=O)Oc2ccc(F)cc2)c1)CCOC` (stereo not shown) [Compound 1119], for which the EC50 was in the range of 0.04 to 0.2 µM.

For `COCCN(C)CCCOc1cccc(C2c3[nH]c4ccc(Cl)cc4c3CCN2C(=O)Oc2ccc(F)cc2)c1` (stereo not shown) [Compound 1121], the EC50 was greater than 1 µM.

On to `COc1cc(C2c3[nH]c4ccc(Cl)cc4c3CCN2C(=O)Oc2ccccc2)ccc1OCCCN1CCOCC1` (stereo not shown) [Compound 1130], for which the EC50 lay in the range of 0.008 to 0.04 µM.

`COc1ccc(OC(=O)N2CCc3c([nH]c4ccc(Cl)cc34)C2c2ccc(OCCCN3CCOCC3)c(OC)c2)cc1` (stereo not shown) [Compound 1131]: the EC50 was in the range of 0.008 to 0.04 µM.

As for `COc1cc(C2c3[nH]c4ccc(Cl)cc4c3CCN2C(=O)Oc2ccc(C)cc2)ccc1OCCCN1CCOCC1` (stereo not shown) [Compound 1132], the EC50 lay within 0.008 to 0.04 µM.

As to `O=C(Oc1ccc(Cl)cc1)N1CCc2c([nH]c3ccc(Cl)cc23)C1c1ccc(OCCCNCCO)cc1` (stereo not shown) [Compound 1183], the EC50 is less than 0.008 µM.

`O=C(Oc1ccc(Cl)cc1)N1CCc2c([nH]c3ccc(Cl)cc23)C1c1ccc(OCCCN(CCO)CCO)cc1` (stereo not shown) [Compound 1184]: the EC50 was less than 0.008 µM.

`CCCN(CCC)CCCOc1ccc([C@H]2c3[nH]c4ccc(Cl)cc4c3CCN2C(=O)Oc2ccc(Cl)cc2)cc1` [Compound 1234]: the EC50 is less than 0.008 µM.

`O=C(Oc1ccc(Cl)cc1)N1CCc2c([nH]c3ccc(Cl)cc23)[C@@H]1c1ccc(OCCCNC2CCCC2)cc1` [Compound 1235]: the half-maximal effective concentration (EC50) is 0.008 to 0.04 µM.

As for `O=C(Oc1ccc(Cl)cc1)N1CCc2c([nH]c3ccc(Cl)cc23)[C@@H]1c1ccc(OCCCNC(CO)(CO)CO)cc1` [Compound 1255], the EC50 was 0.04 to 0.2 µM.

For `O=C(Oc1ccc(Cl)cc1)N1CCc2c([nH]c3ccc(Cl)cc23)[C@@H]1c1ccc(OCCCNCCO)cc1` [Compound 1257], the concentration giving a half-maximal response (EC50) lay within 0.008 to 0.04 µM.

Staying with this assay, now noted: Homo sapiens; HeLa cells, hypoxic conditions (1% O2), 24-48 hours, VEGF in conditioned media; read-out: ELISA EC50.
On to `O=C(Oc1ccc(F)cc1)N1CCc2c([nH]c3ccc(Cl)cc23)C1c1ccc(OCCCO)cc1` (stereo not shown) [Compound 1110], for which the EC50 was less than 0.008 µM.

Take `O=C(Oc1ccc(Cl)cc1)N1CCc2c([nH]c3ccc(Cl)cc23)C1c1ccc(OCCCO)cc1` (stereo not shown) [Compound 1111]: the concentration giving a half-maximal response (EC50) was less than 0.008 µM.

For `O=C(Oc1ccc(F)cc1)N1CCc2c([nH]c3ccc(Cl)cc23)C1c1cccc(OCCCn2ccnc2)c1` (stereo not shown) [Compound 1123], the EC50 fell in the range of 0.04 to 0.2 µM.

As for `O=C(Oc1ccc(F)cc1)N1CCc2c([nH]c3ccc(Cl)cc23)C1c1cccc(OCCCn2ccnn2)c1` (stereo not shown) [Compound 1125], the EC50 is 0.2 to 1 µM.

`O=C(Oc1ccc(Cl)cc1)N1CCc2c([nH]c3ccc(Cl)cc23)[C@H]1c1ccc(OCCCCl)cc1` [Compound 1126]: the EC50 fell in the range of 0.2 to 1 µM.

Consider `O=C(Oc1ccc(Cl)cc1)N1CCc2c([nH]c3ccc(Cl)cc23)[C@H]1c1ccc(OCCCn2nccn2)cc1` [Compound 1127], for which the EC50 was 0.04 to 0.2 µM.

As to `O=C(Oc1ccc(Cl)cc1)N1CCc2c([nH]c3ccc(Cl)cc23)[C@@H]1c1ccc(OCCCCl)cc1` [Compound 1128], the EC50 was less than 0.008 µM.

`O=C(Oc1ccc(Cl)cc1)N1CCc2c([nH]c3ccc(Cl)cc23)[C@@H]1c1ccc(OCCCn2nccn2)cc1` [Compound 1129]: the EC50 is less than 0.008 µM.

Regarding `COc1ccc(OC(=O)N2CCc3c([nH]c4ccc(Cl)cc34)C2c2ccc(OCCCn3nccn3)cc2)cc1` (stereo not shown) [Compound 1134], the concentration for a half-maximal effect (EC50) was less than 0.008 µM.

On to `COc1cc(C2c3[nH]c4ccc(Cl)cc4c3CCN2C(=O)Oc2ccccc2)ccc1OCCCn1ccnn1` (stereo not shown) [Compound 1144], for which the half-maximal effective concentration (EC50) lay within 0.04 to 0.2 µM.

For `COc1cc(C2c3[nH]c4ccc(Cl)cc4c3CCN2C(=O)Oc2ccccc2)ccc1OCCCn1nccn1` (stereo not shown) [Compound 1145], the EC50 was 0.008 to 0.04 µM.

With `COc1cc(C2c3[nH]c4ccc(Cl)cc4c3CCN2C(=O)Oc2ccccc2)ccc1OCCCn1cncn1` (stereo not shown) [Compound 1150], the concentration for a half-maximal effect (EC50) was 0.008 to 0.04 µM.

Turning to `COc1ccc(OC(=O)N2CCc3c([nH]c4ccc(Cl)cc34)C2c2ccc(OCCCn3cncn3)c(OC)c2)cc1` (stereo not shown) [Compound 1151], the EC50 lay in the range of 0.04 to 0.2 µM.

With `COc1cc(C2c3[nH]c4ccc(Cl)cc4c3CCN2C(=O)Oc2ccc(C)cc2)ccc1OCCCn1cncn1` (stereo not shown) [Compound 1152], the EC50 is 0.008 to 0.04 µM.

Consider `O=C(Oc1ccc(F)cc1)N1CCc2c([nH]c3ccc(Cl)cc23)C1c1cccc(OCCCn2cncn2)c1` (stereo not shown) [Compound 1155], for which the EC50 was 0.04 to 0.2 µM.

Turning to `C=CCOc1ccc([C@H]2c3[nH]c4ccc(Cl)cc4c3CCN2C(=O)Oc2ccc(Cl)cc2)cc1` [Compound 1159], the EC50 is less than 0.008 µM.

For the compound `O=C(Oc1ccc(Cl)cc1)N1CCc2c([nH]c3ccc(Cl)cc23)[C@@H]1c1ccc(O)cc1` [Compound 1160], the EC50 was less than 0.008 µM.

Take `CC1(C)OC[C@H](CCOc2ccc(C3c4[nH]c5ccc(Cl)cc5c4CCN3C(=O)Oc3ccc(Cl)cc3)cc2)O1` (stereo partly shown) [Compound 1162]: the half-maximal effective concentration (EC50) was less than 0.008 µM.

For `CC1(C)OC[C@H](CCOc2ccc(C3c4[nH]c5ccc(Cl)cc5c4CCN3C(=O)Oc3ccccc3)cc2)O1` (stereo partly shown) [Compound 1168], the EC50 was less than 0.008 µM.

`CC1(C)OC[C@H](CCOc2ccc(C3c4[nH]c5ccc(Cl)cc5c4CCN3C(=O)Oc3ccc(F)cc3)cc2)O1` (stereo partly shown) [Compound 1169]: the EC50 is less than 0.008 µM.

As for `Cc1ccc(OC(=O)N2CCc3c([nH]c4ccc(Cl)cc34)C2c2ccc(OCC[C@H]3COC(C)(C)O3)cc2)cc1` (stereo partly shown) [Compound 1170], the concentration giving a half-maximal response (EC50) is less than 0.008 µM.

On to `COc1ccc(OC(=O)N2CCc3c([nH]c4ccc(Cl)cc34)C2c2ccc(OCC[C@H]3COC(C)(C)O3)cc2)cc1` (stereo partly shown) [Compound 1171], for which the EC50 was less than 0.008 µM.

On to `O=C(Oc1ccc(Cl)cc1)N1CCc2c([nH]c3ccc(Cl)cc23)C1c1ccc(OCC[C@H](O)CO)cc1` (stereo partly shown) [Compound 1172], for which the EC50 is less than 0.008 µM.

For `O=C(Oc1ccccc1)N1CCc2c([nH]c3ccc(Cl)cc23)C1c1ccc(OCC[C@H](O)CO)cc1` (stereo partly shown) [Compound 1178], the EC50 is less than 0.008 µM.

Take `O=C(Oc1ccc(F)cc1)N1CCc2c([nH]c3ccc(Cl)cc23)C1c1ccc(OCC[C@H](O)CO)cc1` (stereo partly shown) [Compound 1179]: the EC50 is less than 0.008 µM.

For `Cc1ccc(OC(=O)N2CCc3c([nH]c4ccc(Cl)cc34)C2c2ccc(OCC[C@H](O)CO)cc2)cc1` (stereo partly shown) [Compound 1180], the EC50 is less than 0.008 µM.

As for `COc1ccc(OC(=O)N2CCc3c([nH]c4ccc(Cl)cc34)C2c2ccc(OCC[C@H](O)CO)cc2)cc1` (stereo partly shown) [Compound 1181], the EC50 is less than 0.008 µM.

For the compound `Cc1ccc(OC(=O)N2CCc3c([nH]c4ccc(Cl)cc34)[C@@H]2c2ccc(OCCCn3cncn3)cc2)cc1` [Compound 1182], the half-maximal effective concentration (EC50) is less than 0.008 µM.

As to `COc1cc(C2c3[nH]c4ccc(Cl)cc4c3CCN2C(=O)Oc2ccc(C)cc2)ccc1OCCCn1nccn1` (stereo not shown) [Compound 1194], the EC50 is less than 0.008 µM.

Regarding `COc1ccc(C2c3[nH]c4ccc(Cl)cc4c3CCN2C(=O)Oc2ccc(F)cc2)cc1F` (stereo not shown) [Compound 1195], the EC50 lay in the range of 0.008 to 0.04 µM.

For `COc1ccc(C2c3[nH]c4ccc(Cl)cc4c3CCN2C(=O)Oc2ccc(C)cc2)cc1F` (stereo not shown) [Compound 1196], the EC50 fell in the range of 0.008 to 0.04 µM.

As for `COc1ccc(OC(=O)N2CCc3c([nH]c4ccc(Cl)cc34)C2c2ccc(OC)c(F)c2)cc1` (stereo not shown) [Compound 1197], the EC50 is 0.008 to 0.04 µM.

Turning to `COc1ccc(C2c3[nH]c4ccc(Cl)cc4c3CCN2C(=O)Oc2ccc(Cl)cc2)cc1F` (stereo not shown) [Compound 1199], the EC50 was in the range of 0.008 to 0.04 µM.

With `CC1(C)OC[C@H](CCOc2ccc([C@H]3c4[nH]c5ccc(Cl)cc5c4CCN3C(=O)Oc3ccc(Cl)cc3)cc2)O1` [Compound 1203], the EC50 is less than 0.008 µM.

As to `CC1(C)OCC(COc2ccc([C@H]3c4[nH]c5ccc(Cl)cc5c4CCN3C(=O)Oc3ccc(Cl)cc3)cc2)CO1` [Compound 1207], the EC50 was less than 0.008 µM.

On to `O=C(Oc1ccc(Cl)cc1)N1CCc2c([nH]c3ccc(Cl)cc23)[C@@H]1c1ccc(OCC(CO)CO)cc1` [Compound 1209], for which the EC50 was less than 0.008 µM.

On to `NC(=O)COc1ccc(C2c3[nH]c4ccc(Cl)cc4c3CCN2C(=O)Oc2ccccc2Cl)cc1` (stereo not shown) [Compound 1213], for which the EC50 fell in the range of 0.04 to 0.2 µM.

In the case of `COc1ccc(OC(=O)N2CCc3c([nH]c4ccc(Cl)cc34)C2c2ccc(OCC(N)=O)cc2)cc1` (stereo not shown) [Compound 1216], the EC50 is 0.008 to 0.04 µM.

Take `O=C(Oc1ccc(Cl)cc1)N1CCc2c([nH]c3ccc(Cl)cc23)[C@@H]1c1ccc(OC[C@H](O)CO)cc1` [Compound 1223]: the EC50 was less than 0.008 µM.

As for `O=C(Oc1ccc(Cl)cc1)N1CCc2c([nH]c3ccc(Cl)cc23)[C@@H]1c1ccc(OC[C@@H](O)CO)cc1` [Compound 1224], the EC50 is less than 0.008 µM.

For the compound `COCC(=O)NCC(O)COc1ccc(C2c3[nH]c4ccc(Cl)cc4c3CCN2C(=O)Oc2ccc(Cl)cc2)cc1` (stereo not shown) [Compound 1225], the 50% effective concentration (EC50) is 0.008 to 0.04 µM.

With `CC1(C)OC[C@H](COc2ccc([C@H]3c4[nH]c5ccc(Cl)cc5c4CCN3C(=O)Oc3ccc(Cl)cc3)cc2)O1` [Compound 1227], the EC50 is less than 0.008 µM.

As for `CCOC(COc1ccc(C2c3[nH]c4ccc(Cl)cc4c3CCN2C(=O)Oc2ccc(Cl)cc2)cc1)OCC` (stereo not shown) [Compound 1228], the half-maximal effective concentration (EC50) was less than 0.008 µM.

Turning to `CC1(COc2ccc([C@H]3c4[nH]c5ccc(Cl)cc5c4CCN3C(=O)Oc3ccc(Cl)cc3)cc2)COC(C)(C)OC1` [Compound 1229], the EC50 is less than 0.008 µM.

For the compound `CC(CO)(CO)COc1ccc([C@H]2c3[nH]c4ccc(Cl)cc4c3CCN2C(=O)Oc2ccc(Cl)cc2)cc1` [Compound 1230], the EC50 was less than 0.008 µM.

In the case of `O=C(Oc1ccc(Cl)cc1)N1CCc2c([nH]c3ccc(Cl)cc23)C1c1ccc(OC(CO)CO)cc1` (stereo not shown) [Compound 1231], the EC50 lay in the range of 0.008 to 0.04 µM.

In the case of `O=C(Oc1ccc(Cl)cc1)N1CCc2c([nH]c3ccc(Cl)cc23)[C@@H]1c1ccc(OCCCO)cc1` [Compound 1250], the EC50 was less than 0.008 µM.
